Experimental data reported in US10844049B2, “GLP-1R agonists and uses thereof” (QILU REGOR THERAPEUTICS INC., priority 2018, dated 2020).
pEC50: −log10 of the molar value.

Target: GLP1R (Homo sapiens, UniProt P43220)
Test: GLP1R cAMP HTRF assay, HEK293/GLP-1R/CRE/Luc (HEK293T cells)
Format: cell-based
Settings: read-out: EC50
Method: GLP-1R-mediated agonist activity was determined with a cell-based functional assay utilizing an HTRF (Homogeneous Time-Resolved Fluorescence) cAMP detection kit (cAMP Dynamic 2 Assay Kit; CisBio cat #62AM4PEC) that measures cAMP levels in the cell. The method is a competitive immunoassay between native cAMP produced by the cells and exogenous cAMP labeled with the dye d2. The tracer binding is visualized by a mAb anti-cAMP labeled with Cryptate. The specific signal (i.e., energy transfer) is inversely proportional to the concentration of cAMP in either standard or experimental sample.
A cell line stably expressing the receptor was isolated.
Varying concentrations of each compound to be tested (in DMSO) were diluted in DMSO to obtain 200× compound working solution first and then 50 nl compounds were added to a white 384-well assay plate (Greiner 784075) with ECHO. The final DMSO concentration was 0.5%. The compound concentration range may be adjusted at any time.
Cells were removed from cryopreservation, re-suspended in 5 mL of Dulbecco's Phosphate Buffered Saline (DPBS-Sigma Cat # D8537) and centrifuged at 900 g for 5 min at 22° C. The cell pellet was then re-suspended in 1 mL of assay buffer [DPBS with 500 μM IBMX (Sigma #15879) and 0.1% BSA (Sigma # A1933). IBMX and BSA were freshly added on the day of assay]. A 10 μL sample of the cell suspension was counted on an Invitrogen Countess II to determine cell viability and cell count per mL. The remaining cell suspension was then adjusted with assay buffer to deliver 1000 viable cells per well using a Matrix Combi Multidrop reagent dispenser. 10 μL cell suspensions were added to each well of the assay plate which already contains compound. The plate was sealed and incubated at 37° C. with 5% CO2 for 30 minutes.
Following the 30 minute incubation, 5 μL of labeled d2 cAMP and 5 μL of anti-cAMP antibody (both diluted 1:20 in cell lysis buffer; as described in the manufacturer's assay protocol) were added to each well of the assay plate. The plates w ere then incubated at room temperature and after 60 minutes, changes in the HTRF signal were read with an Envision multi-label plate reader using excitation of 330 nm and emissions of 615 and 665 nm. Raw data were converted to nM cAMP by interpolation from a cAMP standard curve (as described in the manufacturer's assay protocol) and the percent effect was determined relative to a saturating concentration of the full agonist GLP-17-37 (10 nM) included on each plate. EC50 determinations were made from agonist dose-response curves analyzed with a curve fitting program using a 4-parameter logistic dose response equation.
3) Anti-cAMP antibody-cryptate working solution preparation • c) The lyophilisate was reconstituted with appropriate amount of distilled water according to manufacturer's instruction to make working stock which can be aliquoted and frozen (−20° C.). • d) The working stock solution was diluted 1:20 in the conjugate and lysis buffer before use. Procedures Procedures for Cell Suspension Preparation • 1. Frozen cells were thawed very briefly in a 37° C. water bath under sterile conditions until just before ice completely melt (for about 1 minute) with a continuous agitation. Caution was taken because a longer incubation could result in cell death. • 2. DMSO was removed from the media by carefully transferring thawed cells to a sterile 15/50 mL tube, filling a tube with 10-50 mL of complete media pre-warmed to 37° C., and allowing the cells to sit 5 min before centrifuging at 900 rpm for 5 minutes for cell collection. • 3. The cells were resuspended with assay buffer. • 4. For stable GLP1-R assay, the optimized cell density is 1000 cells/well. Caution was taken because cell density optimization was crucial and needed to be optimized in different laboratories. The level of cAMP produced by the cells must fall within the linear range of the standard curve.

Sequence of GLP1R (P43220 24-463): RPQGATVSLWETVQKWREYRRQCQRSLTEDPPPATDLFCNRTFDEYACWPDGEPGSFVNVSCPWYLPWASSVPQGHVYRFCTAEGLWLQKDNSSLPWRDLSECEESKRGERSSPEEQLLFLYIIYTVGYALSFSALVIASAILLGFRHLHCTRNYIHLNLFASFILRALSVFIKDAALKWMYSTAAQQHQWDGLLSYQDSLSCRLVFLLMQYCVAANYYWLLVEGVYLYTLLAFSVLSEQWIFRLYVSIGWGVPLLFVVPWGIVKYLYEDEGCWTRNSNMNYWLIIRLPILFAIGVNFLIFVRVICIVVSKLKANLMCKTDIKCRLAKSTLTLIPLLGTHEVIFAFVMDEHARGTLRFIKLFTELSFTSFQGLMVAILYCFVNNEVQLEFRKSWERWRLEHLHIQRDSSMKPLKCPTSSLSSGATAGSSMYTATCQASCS

SMILES	pEC50
O=C(O)c1ccc2nc(CN3CC=C(c4cc5cn[nH]c5c(OCc5ccc(Cl)cc5F)n4)CC3)n(C[C@@H]3CCO3)c2c1 [Compound 103, (S)-2-((4-(7-((4-chloro-2-fluorobenzyl)oxy)-1H-pyrazolo[3H-c]pyridin-5-yl)-3,6-dihydropyridin-1(2H)-yl)methyl)-1-(oxetan-2-ylmethyl)-1H-benzo[d]imidazole-6-carboxylic add]	≥ 6.82
O=C(O)c1ccc2nc(CN3CCCN(c4cccc(OCc5ccc(Cl)cc5F)n4)C(=O)C3)n(C[C@@H]3CCO3)c2c1 [Compound 56, (S)-2-((4-(6-((4-chloro-2-fluorobenzyl)oxy)pyridin-2-yl)-3-oxo-1,4-diazepan-1-yl)methyl)-1-(oxetan-2-ylmethyl)-1H-benzo[d]imidazole-6-carboxylic acid]	< 6.00
O=C(O)c1ccc2nc(CN3CC=C(c4cccc(OCc5ncc(C(F)(F)F)cc5F)n4)CC3)n(C[C@@H]3CCO3)c2c1 [Compound 149, (S)-2-((6-((3-fluoro-5-(trifluoromethyl)pyridin-2-yl)methoxy)-3′,6′-dihydro-[2H′-bipyridin]-1′(2′II)-yl)methyl)-1-(oxetan-2-ylmethyl)-1H-benzo[d]imidazole-6-carboxylic acid]	≥ 7.82
O=C(O)c1ccc2nc(CC3CCN(c4cccc(OCc5ccc(Cl)cn5)n4)CC3)n(C[C@@H]3CCO3)c2c1F [Compound 232, (S)-2-((l-(6-((5-chloropyridin-2-yl)methoxy)pyridin-2-yl)piperidin-4-yl)methyl)-7-fluoro-1-(oxetan-2-ylmethyl)-1H-benzo[d]imidazole-6-carboxylic acid]	≥ 6.82
O=C(O)c1ccc2nc(CN3CC=C(c4cccc(OCc5cnccc5C(F)(F)F)n4)CC3)n(C[C@@H]3CCO3)c2c1 [Compound 150, (S)-1-(oxetan-2-ylmethyl)-2-((6-((4-(trifluoromethyl)pyridin-3-yl)methoxy)-3′,6′-dihydro-[2,4′-bipyridin]-1′(2′H)-yl)methyl)-1H-benzo[d]imidazole-6-carboxylic add]	≥ 6.00
O=C(O)c1ccc2nc(CN3CC=C(c4cccc(OCc5ccnc(Cl)c5)n4)CC3)n(C[C@@H]3CCO3)c2c1 [Compound 162, (S)-2-((6-((2-chloropyridin-4-yl)methoxy)-3′,6′-dihydro-[2,4′-bipyridin]-1′(2′H)-yl)methyl)-1-(oxetan-2-ylmethyl)-1H-benzo[d]imidazole-6-carboxylic acid]	≥ 6.82
N#Cc1ccc(COc2ccc(F)c(C3=CCN(Cc4nc5ccc(C(=O)O)cc5n4C[C@@H]4CCO4)CC3)c2)c(F)c1 [Compound 206, (S)-2-((4-(5-((4-cyano-2-fluorobenzyl)oxy)-2-fluorophenyl)-3,6-dihydropyridin-1(2H)-yl)methyl)-1-(oxetan-2-ylmethyl)-1H-benzo[d]imidazole-6-carboxylic add]	≥ 7.82
O=C(O)c1ccc2nc(CN3CCN(c4ncnc(OCc5ccc(Cl)cc5F)n4)CC3)n(C[C@@H]3CCO3)c2c1 [Compound 167, (S)-2-((4-(4-((4-chloro-2-fluorobenzyl)oxy)-1,3,5-triazin-2-yl)piperazin-1-yl)methyl)-1-(oxetan-2-ylmethyl)-1H-benzo[d]imidazole-6-carboxylic acid]	≥ 6.82
O=C(O)c1cc2c(cn1)nc(CN1CC=C(c3cccc(OCc4ccc(Cl)cc4F)n3)CC1)n2C[C@@H]1CCO1 [Compound 170, (S)-2-((G-((4-chloro-2-fluorobenzyl)oxy)-3′,6′-dihydro-[2H′-bipyridin]-1 (2′H)-yl)methyl)-1-(oxetan-2-ylmethyl)-1H-imidazo[4,5-c]pyridine-6-carboxylic acid]	≥ 7.82
O=C(O)c1ccc2nc(CN3CC=C(c4cccc(OCc5ccc(F)cc5F)n4)CC3)n(C[C@@H]3CCO3)c2c1 [Compound 141, (S)-2-((6-((2H-difluorobenzyl)oxy)-5′,6′-dihydro-[2,4′-bipyridin]-1′(2′H)-yl)methyl)-1-(oxetan-2-ylmethyl)-1H-benzo[d]imidazole-6-carboxylic add]	≥ 7.82
O=C(O)c1ccc2nc(CN3CC=C(c4cccc(OCc5ccc(-n6ccnn6)cc5)n4)CC3)n(C[C@@H]3CCO3)c2c1 [Compound 244, (S)-2-((6-((4-(1H-1,2,3-triazol-1-yl)benzyl)oxy)-3′,6′-dihydro-[2,4′-bipyridin]-1′(2′H)-yl)methyl)-1-(oxetan-2-ylmethyl)-1H-benzo[d]imidazole-6-carboxylic add]	≥ 7.82
O=C(O)c1ccc2nc(CN3CC=C(c4cc(OCc5ccc(Cl)cc5F)c(F)cc4F)CC3)n(C[C@@H]3CCO3)c2c1 [Compound 132, (S)-2-((4-(5-((4-chloro-2-fluorobenzyl)oxy)-2H-difluorophenyl)-3,6-dihydropyridin-1(2H)-yl)methyl)-1-(oxetan-2-ylmethyl)-1H-benzo[d]imidazole-6-carboxylic acid]	≥ 6.00
O=C(O)c1ccc2nc(CN3CC=C(c4cccc(OCc5cnccn5)n4)CC3)n(C[C@@H]3CCO3)c2c1 [Compound 165, (S)-1-(oxetan-2-ylmethyl)-2-((6-(pyrazin-2-ylmethoxy)-3′,6′-dihydro-[2,4′-bipyridin]-1′(2′H)-yl)methyl)-1H-benzo[d]imidazole-6-carboxylic acid]	≥ 6.00

The next lines start with the values.

pEC50	SMILES
≥ 7.82	N#Cc1ccc(COc2cc(C3=CCN(Cc4nc5ccc(C(=O)O)cc5n4C[C@@H]4CCO4)CC3)ccc2F)c(F)c1 [Compound 204, (S)-2-((4-(3-((4-cyano-2-fluorobenzyl)oxy)-4-fluorophenyl)-3,6-dihydropyridin-1(2H)-yl)methyl)-1-(oxetan-2-ylmethyl)-1H-benzo[d]imidazole-6-carboxylic acid]
≥ 7.82	O=C(O)c1ccc2nc(CN3CC=C(c4cccc(OCc5ccc(Cl)cc5F)n4)CC3)n(Cc3ncco3)c2c1 [Compound 72, 2-((6-((4-chloro-2-fluorobenzyl)oxy)-3′,6′-dihydro-[2,4′-bipyridin]-1′(2′H)-yl)methyl)-1-(oxazol-2-ylmethyl)-1H-benzo[d]imidazole-6-carboxyli acid]
≥ 7.82	O=C(O)c1ccc2nc(CN3CC=C(c4cccc(OCc5ccccc5F)n4)CC3)n(C[C@@H]3CCO3)c2c1 [Compound 155, (S)-2-((6-((2-fluorobenzyl)oxy)-3′,6′-dihydro-[2H′-bipyridin]-1′(2′H)-yl)methyl)-1-(oxetan-2-ylmethyl)-1H-benzo[d]imidazole-6-carboxylic acid]
≥ 7.82	N#Cc1ccc(COc2cccc(N3CCC(Cc4nc5ccc(C(=O)O)cc5n4C[C@@H]4CCO4)CC3)n2)c(F)c1 [Compound 226, (S)-2-((l-(6-((4-cyano-2-fluorobenzyl)oxy)pyridin-2-yl)piperidin-4-yl)methyl)-1-(oxetan-2-ylmethyl)-1H-benzo[d]imidazole-6-carboxylic acid]
≥ 7.82	O=C(O)c1ccc2nc(CN3CC=C(c4cccc(OCc5ccc(Cl)cn5)n4)CC3)n(C[C@@H]3CCO3)c2c1 [Compound 116, (S)-2-((6-((5-chloropyridin-2-yl)methoxy)-3′,6′-dihydro-[2H′-bipyridin]-1′(2′H)-yl)methyl)-1-(oxetan-2-ylmethyl)-1H-benzo[d]imidazole-6-carboxylic add]
≥ 7.82	O=C(O)c1ccc2nc(CN3CC=C(c4nc(OCc5ccc(Cl)cc5F)c(F)cc4F)CC3)n(C[C@@H]3CCO3)c2c1 [Compound 131, (S)-2-((4-(6-(4-chloro-2-fluorobenzyloxy)-3,5-difluoropyridin-2-yl)-5,6-dihydropyridin-1(2H)-yl)methyl)-1-(oxetan-2-ylmethyl)-1H-benzo[d]imidazole-6-carboxylic add]
≥ 7.82	Cc1ccc(COc2cccc(C3=CCN(Cc4nc5ccc(C(=O)O)cc5n4C[C@@H]4CCO4)CC3)n2)cc1 [Compound 146, (S)-2-((6-((4-methylbenzyl)oxy)-3′,6′-dihydro-[2,4′-bipyridin]-1′(2′H)-yl)methyl)-1-(oxetan-2-ylmethyl)-1H-benzo[d]imidazole-6-carboxylic acid]
